Reference: patent US20150072969A1, “PHENYL ALKANOIC ACID DERIVATIVES AS GPR AGONISTS” (PIRAMAL ENTERPRISES LIMITED, priority 2012, published 2015)

Biological target: T1, human GPR40 (Homo sapiens, UniProt O14842)
T1 construct: expressed in transfected cells
Assay: Inositol phosphate accumulation assay in FFAR1 (GPR40) CHOK1 clone
Type: cell-based
Conditions: GPR40 agonist activity; intracellular inositol phosphate release in CHOK1 cells stably expressing recombinant human GPR40; 1 h incubation at 37° C.
Protocol: The inositol phosphate accumulation assay was performed to characterise the GPR40 agonist activity of the compounds of the present invention.
The assay was carried out in accordance with the method substantially as described in Diabetes, 2008, 57(8):2211-2219 and PLoS One, 2011, 6(11):e27270.
A stable FFAR1 (GPR40) CHOK1 clone was used to determine the GPR40 agonist activity of the test compounds (compounds of the present invention synthesized in the above Examples). The stable FFAR1 (GPR40) CHOK1 clone expressing recombinant human GPR40 was generated according to the procedure described herein below.
Full-length human GPR40 cDNA (Accession Number: NM_005303) was cloned into mammalian expression vector (pReceiver) and was stably transfected into (Chinese Hamster Ovary) CHOK1 cells using Amaxa technology. 2 μg of pReceiver hGPR40 were transfected into 1×10^6 CHOK1 cells in 6 well plates. The cells were split into three 100 mm cell culture plates on the second day and geneticin (800 μg/ml) was added to the cell culture on the third day. The selection medium comprising Ham's F-12 K supplemented with FBS (10%) and geneticin (800 μg/ml) was changed every three days until colonies were formed. The colonies isolated were further purified (single cell cloning) after 14 days to obtain pure isogenic single cell homogenous population of cells expressing the GPR40 receptor protein on the cell surface. GPR40 receptor expression on cell surface was measured by flow cytometry. The in-house transgenic cell line (clone) created was labeled as FFAR1 (GPR40) CHOK1 clone.
FFAR1 (GPR40) CHOK1 cells were suspended in culture medium comprising Ham's F-12 K supplemented with FBS (10%) and geneticin (800 μg/ml). Cells were seeded at a density of 2×10^4 cells per well in a 384 well tissue culture plate and cultured overnight. The medium was discarded and the cells were further resuspended in a stimulation buffer comprising HEPES (10 mM), glucose (5.5 mM), CaCl2 (1 mM), NaCl (150 mM), KCl (4.2 mM), MgCl2 (0.5 mM) and LiCl (50 mM) having a pH of 7.6. The test compounds (representative compounds of Formula (I)) 10 mM stock were prepared in DMSO and subsequently log fold dilution of the test compounds were carried out in the stimulation buffer. Various concentrations of the test compounds and the standard DMSO solution were added to each well. The plates were further incubated at 37° C., 5% CO2 incubator for 1 h. The final concentration of the test compounds in the each well varied from 1 μM to 10 μM. The DMSO concentration in the assay was 0.1% or less. After incubation, lysis reagent and anti-Tb conjugate were added to each well. The intracellular Inositol Phosphate release and accumulation in the test compounds were measured by the binding ability of the anti-Tb conjugate with the inositol phosphate inherently produced in each well as compared with the inositol phosphate coupled to dye d2 added externally to each well. The plates were then read using Perkin Elmer (Envision) plate reader and the fluorescence signal was captured. The EC50 values for the test compounds were calculated from the non linear regression sigmoidal curve graphs plotted between the concentrations of the test compounds and the fluorescence intensity.

T1 sequence (O14842 whole entry): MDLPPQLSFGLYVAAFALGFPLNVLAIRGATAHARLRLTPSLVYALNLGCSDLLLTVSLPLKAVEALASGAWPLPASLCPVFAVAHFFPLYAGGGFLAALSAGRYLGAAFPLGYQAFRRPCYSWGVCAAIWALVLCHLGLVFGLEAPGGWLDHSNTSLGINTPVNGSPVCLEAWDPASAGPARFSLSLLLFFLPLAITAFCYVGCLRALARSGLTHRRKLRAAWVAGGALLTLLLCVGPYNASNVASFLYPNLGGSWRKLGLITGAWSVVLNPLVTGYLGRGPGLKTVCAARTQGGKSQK

With `O=C(O)CC1(c2ccc(OCc3cccc(-c4ccccc4)c3)c(F)c2)COC1` [Example 12, 2-(3-(4-([1,1′-Biphenyl]-3-ylmethoxy)-3-fluorophenyl)oxetan-3-yl)acetic acid] the EC50 was > 500 nM.

`CC1(C)CCC(C)(C)c2cc(COc3ccc(C4(CC(=O)O)COC4)cc3)ccc21` [Example 18, 2-(3-(4-((5,5,8,8-Tetramethyl-5,6,7,8-tetrahydronaphthalen-2-yl)methoxy)phenyl)oxetan-3-yl)acetic acid] gave an EC50 of 100 to 500 nM.

In the case of `Cc1cc(OCCCS(C)(=O)=O)cc(C)c1-c1cccc(COc2ccc(C3(CC(=O)O)CN(S(C)(=O)=O)C3)cc2)c1` [Example 94, 2-(3-(4-((2′,6′-Dimethyl-4′-(3-(methylsulfonyl)propoxy)-[1,1′-biphenyl]-3-yl)methoxy)phenyl)-1-(methylsulfonyl)azetidin-3-yl)acetic acid], the EC50 is reported as > 500 nM.

With `O=C(O)CC1(c2ccc(OCc3ccc(-c4ccccc4)cc3)c(F)c2)COC1` [Example 14, 2-(3-(4-([1,1′-Biphenyl]-4-ylmethoxy)-3-fluorophenyl)oxetan-3-yl)acetic acid] the EC50 was > 500 nM.

`N#Cc1ccccc1-c1ccc(COc2ccc(C3(CC(=O)O)COC3)cc2)cc1` [Example 6, 2-(3-(4-((2′-Cyano-[1,1′-biphenyl]-4-yl)methoxy)phenyl)oxetan-3-yl)acetic acid] was tested, and the EC50 was 100 to 500 nM.

`COc1ccc(COc2ccc(C3(CC(=O)O)COC3)cc2)cc1C(F)(F)F` [Example 22] was tested, and the EC50 was > 500 nM.

For `CS(=O)(=O)CCCOc1ccc(-c2cccc(COc3ccc(C4(CC(=O)O)COC4)cc3)c2)c(Cl)c1` [Example 62, 2-(3-(4-((2′-Chloro-4′-(3-(methylsulfonyl)propoxy)-[1,1′-biphenyl]-3-yl)methoxy)phenyl)oxetan-3-yl)acetic acid], the EC50 was < 100 nM.

In the case of `O=C(O)CC1(c2ccc(OCc3cccc(-c4ccc(OCC5(CO)COC5)cc4Cl)c3)cc2)COC1` [Example 66, 2-(3-(4-((2′-Chloro-4′-((3-(hydroxymethyl)oxetan-3-yl)methoxy)-[1,1′-biphenyl]-3-yl)methoxy)phenyl)oxetan-3-yl)acetic acid], the EC50 is reported as < 100 nM.

For `CC(=O)N1CC(CC(=O)O)(c2ccc(OCc3cccc(-c4c(C)cc(OCCCS(C)(=O)=O)cc4C)c3)cc2)C1` [Example 96, 2-(1-Acetyl-3-(4-((2′,6′-dimethyl-4′-(3-(methylsulfonyl)propoxy)-[1,1′-biphenyl]-3-yl)methoxy)phenyl)azetidin-3-yl)acetic acid], the EC50 was > 500 nM.

For `Cc1ccc(C(F)(F)F)cc1COc1ccc(C2(CC(=O)O)COC2)cc1` [Example 24], the EC50 was > 500 nM.

In the case of `Cc1cc(OCC2CCCO2)cc(C)c1-c1cccc(COc2ccc(C3(CC(=O)O)COC3)cc2)c1` (centres unmarked) [Example 47, 2-(3-(4-((2′,6′-Dimethyl-4′-((tetrahydrofuran-2-yl)methoxy)-[1,1′-biphenyl]-3-yl)methoxy)phenyl)oxetan-3-yl)acetic acid], the EC50 is reported as < 100 nM.

For `COc1cncc(-c2cccc(COc3ccc(C4(CC(=O)O)COC4)cc3)c2)c1` [Example 106, 2-(3-(4-((3-(5-Methoxypyridin-3-yl)benzyl)oxy)phenyl)oxetan-3-yl)acetic acid], the EC50 was > 500 nM.

Compound `CSc1ccc(-c2cccc(COc3ccc(C4(CC(=O)O)COC4)cc3)c2)cc1` [Example 83, 2-(3-(4-((4′-(Methylthio)-[1,1′-biphenyl]-3-yl)methoxy)phenyl)oxetan-3-yl)acetic acid] has an EC50 of 100 to 500 nM.

`Cc1ccc(COc2ccc(C3(CC(=O)O)COC3)cc2)cc1C(F)(F)F` [Example 28, 2-(3-(4-((4-Methyl-3-(trifluoromethyl)benzyl)oxy)phenyl)oxetan-3-yl)acetic acid] showed an EC50 of 100 to 500 nM.

`Cc1cc(OC2CCCC2)cc(C)c1-c1cccc(COc2ccc(C3(CC(=O)O)COC3)cc2)c1` [Example 59, 2-(3-(4-((4′-(Cyclopentyloxy)-2′,6′-dimethyl-[1,1′-biphenyl]-3-yl)methoxy)phenyl)oxetan-3-yl)acetic acid] was tested, and the EC50 was > 500 nM.

For `Cc1cc(OC[C@@H]2CCOC2)cc(C)c1-c1cccc(COc2ccc(C3(CC(=O)O)COC3)cc2)c1` [Example 49, (R)-2-(3-(4-((2′,6′-dimethyl-4′-((tetrahydrofuran-3-yl)methoxy)-[1,1′-biphenyl]-3-yl)methoxy)phenyl)oxetan-3-yl)acetic acid], the EC50 was < 100 nM.

In the case of `COc1cc(COc2ccc(C3(CC(=O)O)COC3)cc2)ccc1C(F)(F)F` [Example 30, 2-(3-(4-((3-Methoxy-4-(trifluoromethyl)benzyl)oxy)phenyl)oxetan-3-yl)acetic acid], the EC50 is reported as > 500 nM.

`O=C(O)CC1(c2ccc(OCc3ccc(-c4ccccc4)cc3)cc2)COC1` [Example 8, 2-(3-(4-([1,1′-Biphenyl]-4-ylmethoxy)phenyl)oxetan-3-yl)acetic acid] showed an EC50 of 100 to 500 nM.

For `Cc1cc(OCC2CCS(=O)(=O)C2)cc(C)c1-c1cccc(COc2ccc(C3(CC(=O)O)COC3)cc2)c1` (centres unmarked) [Example 53, 2-(3-(4-((4′-((1,1-Dioxidotetrahydrothiophen-3-yl)methoxy)-2′,6′-dimethyl-[1,1′-biphenyl]-3-yl)methoxy)phenyl)oxetan-3-yl)acetic acid], the EC50 was < 100 nM.

For `O=C(O)CC1(c2ccc(OCc3ccc(C(F)(F)F)c(F)c3)cc2)COC1` [Example 32, 2-(3-(4-((3-Fluoro-4-(trifluoromethyl)benzyl)oxy)phenyl)oxetan-3-yl)acetic acid], the EC50 was > 500 nM.

For `O=C(O)CC1(c2ccc(OCc3cccc(-c4ccc(OCC5CCOCC5)cc4Cl)c3)cc2)COC1` [Example 72, 2-(3-(4-((2′-Chloro-4′-((tetrahydro-2H-pyran-4-yl)methoxy)-[1,1′-biphenyl]-3-yl)methoxy)phenyl)oxetan-3-yl)acetic acid], the EC50 was < 100 nM.

For `Cc1cc(OCC2(CO)COC2)cc(C)c1-c1cccc(COc2ccc(C3(CC(=O)O)COC3)cc2)c1` [Example 55, 2-(3-(4-((4′-((3-(Hydroxymethyl)oxetan-3-yl)methoxy)-2′,6′-dimethyl-[1,1′-biphenyl]-3-yl)methoxy)phenyl)oxetan-3-yl)acetic acid], the EC50 was < 100 nM.

With `O=C(O)CC1(c2ccc(OCc3cccc(-c4ccc(OCC5CCS(=O)(=O)CC5)cc4Cl)c3)cc2)COC1` [Example 70, 2-(3-(4-((2′-Chloro-4′-((1,1-dioxidotetrahydro-2H-thiopyran-4-yl)methoxy)-[1,1′-biphenyl]-3-yl)methoxy)phenyl)oxetan-3-yl)acetic acid] the EC50 was < 100 nM.

With `CS(=O)(=O)CCCOc1ccc(-c2cccc(COc3ccc(C4(CC(=O)O)COC4)cc3)c2)cc1C(F)(F)F` [Example 87, 2-(3-(4-((4′-(3-(Methylsulfonyl)propoxy)-3′-(trifluoromethyl)-[1,1′-biphenyl]-3-yl)methoxy)phenyl)oxetan-3-yl)acetic acid] the EC50 was > 500 nM.

For `O=C(O)CC1(c2ccc(OCc3cccc(-c4ccc(C(F)(F)F)cc4)c3)c(F)c2)COC1` [Example 98, 2-(3-(3-Fluoro-4-((4′-(trifluoromethyl)-[1,1′-biphenyl]-3-yl)methoxy)phenyl)oxetan-3-yl)acetic acid], the EC50 was > 500 nM.

With `O=C(O)CC1(c2ccc(OCc3cccc(F)c3)cc2)COC1` [Example 102, 2-(3-(4-((3-Fluorobenzyl)oxy)phenyl)oxetan-3-yl)acetic acid] the EC50 was > 500 nM.

With `O=C(O)CC1(c2ccc(OCc3cccc(-c4ccc(OCC5CCS(=O)(=O)C5)cc4Cl)c3)cc2)COC1` (centres unmarked) [Example 68, 2-(3-(4-((2′-Chloro-4′-((1,1-dioxidotetrahydrothiophen-3-yl)methoxy)-[1,1′-biphenyl]-3-yl)methoxy)phenyl)oxetan-3-yl)acetic acid] the EC50 was < 100 nM.

In the case of `O=C(O)CC1(c2ccc(OCc3cccc(-c4ccc(OCC5CCC5)cc4)c3)cc2)COC1` [Example 75, 2-(3-(4-((4′-(Cyclobutylmethoxy)-[1,1′-biphenyl]-3-yl)methoxy)phenyl)oxetan-3-yl)acetic acid], the EC50 is reported as > 500 nM.

For `Cc1cc(OCCCS(C)(=O)=O)cc(C)c1-c1cccc(COc2ccc(C3(CC(=O)O)COC3)cc2)c1` [Example 10, 2-(3-(4-((2′,6′-Dimethyl-4′-(3-(methylsulfonyl)propoxy)-[1,1′-biphenyl]-3-yl)methoxy)phenyl)oxetan-3-yl)acetic acid], the EC50 was < 100 nM.
